Square brackets hold non-standard residues; d marks the D form. Peptide text beside a SMILES is read from it. * marks the point of attachment. His(Trt) = N[C@@H](Cc1cn(C(c2ccccc2)(c2ccccc2)c2ccccc2)cn1)C(=O)O; His(τ-CHPh2) = N[C@@H](Cc1cn(C(c2ccccc2)c2ccccc2)cn1)C(=O)O; Tyr(3-NO2) = N[C@@H](Cc1ccc(O)c([N+](=O)[O-])c1)C(=O)O; Tyr(3-Cl) = N[C@@H](Cc1ccc(O)c(Cl)c1)C(=O)O; dPhe(4-Me) = Cc1ccc(C[C@@H](N)C(=O)O)cc1; Octanoyl = CCCCCCCC(=O)*
target: T1, GPR39 (Homo sapiens, UniProt O43194)
T1 sequence (O43194 1-453): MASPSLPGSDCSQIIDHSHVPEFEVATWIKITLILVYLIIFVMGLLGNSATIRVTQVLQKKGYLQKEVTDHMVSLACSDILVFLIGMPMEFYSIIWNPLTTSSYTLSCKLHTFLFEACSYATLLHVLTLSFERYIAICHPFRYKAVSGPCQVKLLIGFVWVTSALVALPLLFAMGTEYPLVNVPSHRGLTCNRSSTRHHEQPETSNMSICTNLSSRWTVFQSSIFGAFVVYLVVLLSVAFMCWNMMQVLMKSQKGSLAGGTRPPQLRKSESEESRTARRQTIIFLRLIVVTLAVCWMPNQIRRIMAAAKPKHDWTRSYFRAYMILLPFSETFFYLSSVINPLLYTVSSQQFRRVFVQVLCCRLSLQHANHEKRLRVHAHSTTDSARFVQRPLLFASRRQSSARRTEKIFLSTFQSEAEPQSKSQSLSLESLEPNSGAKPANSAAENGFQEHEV
Protocol: Specifically, the fibroblast cell line CV-1 (1×10^5 cells/ml, Korea Cell Line Bank) was cultured in a 96 well cell culture plate for 24 hours, and then treated with GPR39 inserted into adenovirus and SRE (serum response element) luciferase at 50 MOI (multiplicity of infection) and 25 MOI virus for 3 hours, respectively, and then cultured for 24 hours.

SMILES | ECmax (-fold induction over basal)
CCCCCCCC(=O)NCCCC[C@H](NC(=O)[C@@H](N)Cc1cn(C(c2ccccc2)(c2ccccc2)c2ccccc2)cn1)C(=O)N[C@@H](Cc1ccccc1)C(=O)N[C@@H](Cc1ccc(O)cc1)C(=O)N[C@@H](CCC(N)=O)C(=O)N[C@@H](CC(N)=O)C(=O)N[C@@H](CCC(N)=O)C(=O)N[C@@H](C)C(=O)N[C@@H](CCCNC(=N)N)C(=O)N[C@@H](Cc1ccccc1)C(N)=O [HKFY-43, (S)-N1-((S)-1-(((S)-1-(((S)-1-amino-1-oxo-3-phenylpropan-2-yl)amino)-5-guanidino-1-oxopentan-2-yl)amino)-1-oxopropan-2-yl)-2-((2S,5S,8S,11S,14S)-2-(2-amino-2-oxoethyl)-14-((S)-2-amino-3-(1-trityl-1H-imidazol-4-yl)propanamido)-5-(3-amino-3-oxopropyl)-11-benzyl-8-(4-hydroxybenzyl)-4,7,10,13,20-pentaoxo-3,6,9,12,19-pentaazaheptacosanamido)pentanediamide] (H-[His(Trt)]K(Octanoyl)FYQNQARF-NH2) | 12.1 ± 0.02 -fold induction over basal
CCCCCCCC(=O)NCCCC[C@H](NC(=O)[C@@H](N)Cc1cn(C(c2ccccc2)(c2ccccc2)c2ccccc2)cn1)C(=O)N[C@@H](Cc1ccccc1)C(=O)N[C@@H](Cc1ccc(O)cc1)C(=O)N[C@@H](Cc1c[nH]c2ccccc12)C(=O)O [HKFY-44, N6-octanoyl-N2-(Nt-trityl-L-histidyl)-L-lysyl-L-phenylalanyl-L-tyrosyl-L-tryptophan] (H-[His(Trt)]K(Octanoyl)FYW-OH) | 20 ± 0.47 -fold induction over basal
CCCCCCCC(=O)NCCCC[C@H](NC(=O)[C@@H](N)Cc1cn(C(c2ccccc2)(c2ccccc2)c2ccccc2)cn1)C(=O)N[C@@H](Cc1ccc(O)cc1)C(=O)N[C@@H](Cc1ccccc1)C(=O)O [HKFY-47, N6-octanoyl-N2-(Nt-trityl-L-histidyl)-L-lysyl-L-tyrosyl-L-phenylalanine] (H-[His(Trt)]K(Octanoyl)YF-OH) | 13 ± 1.7 -fold induction over basal
CCCCCCCC(=O)NCCCC[C@H](NC(=O)[C@@H](N)Cc1cn(C(c2ccccc2)(c2ccccc2)c2ccccc2)cn1)C(=O)N[C@@H](Cc1ccc(O)cc1)C(=O)N[C@@H](Cc1ccc(O)cc1)C(=O)O [HKFY-48, N6-octanoyl-N2-(Nt-trityl-L-histidyl)-L-lysyl-L-tyrosyl-L-tyrosine] (H-[His(Trt)]K(Octanoyl)YY-OH) | 14.4 ± 2.7 -fold induction over basal
CCCCCCCC(=O)NCCCC[C@H](NC(=O)[C@@H](N)Cc1cn(C(c2ccccc2)(c2ccccc2)c2ccccc2)cn1)C(=O)N[C@@H](Cc1ccccc1)C(=O)O [HKFY-49, N6-octanoyl-N2-(Nt-trityl-L-histidyl)-L-lysyl-L-phenylalanine] (H-[His(Trt)]-Lys(Octanoyl)-Phe-OH) | 18.3 ± 1.8 -fold induction over basal
CCCCCCCC(=O)NCCCC[C@H](NC(=O)[C@@H](N)Cc1cn(C(c2ccccc2)(c2ccccc2)c2ccccc2)cn1)C(=O)N[C@@H](Cc1ccccc1)C(=O)N[C@@H](CO)C(=O)O [HKFY-50, N6-octanoyl-N2-(Nt-trityl-L-histidyl)-L-lysyl-L-phenylalanyl-L-serine] (H-[His(Trt)]K(Octanoyl)FS-OH) | 16.2 ± 1.5 -fold induction over basal
CCCCCCCC(=O)NCCCC[C@H](NC(=O)[C@@H](N)Cc1cn(C(c2ccccc2)(c2ccccc2)c2ccccc2)cn1)C(=O)N[C@@H](CC(C)C)C(=O)N[C@@H](Cc1ccc(O)cc1)C(=O)O [HKFY-51, N6-octanoyl-N2-(Nt-trityl-L-histidyl)-L-lysyl-L-leucyl-L-tyrosine] (H-[His(Trt)]K(Octanoyl)LY-OH) | 14.4 ± 1.9 -fold induction over basal
C[C@H](NC(=O)[C@H](CCC(N)=O)NC(=O)[C@H](CCC(N)=O)NC(=O)[C@H](CC(=O)O)NC(=O)[C@H](Cc1ccc(O)cc1)NC(=O)[C@H](Cc1ccccc1)NC(=O)[C@@H](N)Cc1cn(C(c2ccccc2)(c2ccccc2)c2ccccc2)cn1)C(=O)N[C@@H](CCCNC(=N)N)C(=O)N[C@@H](Cc1ccccc1)C(N)=O [HKFY-52, (6S,9S,12S,15S,18S)-1-amino-6-(((S)-1-amino-1-oxo-3-phenylpropan-2-yl)carbamoyl)-18-((S)-2-((S)-2-((S)-2-amino-3-(1-trityl-1H-imidazol-4-yl)propanamido)-3-phenylpropanamido)-3-(4-hydroxyphenyl)propanamido)-12,15-bis(3-amino-3-oxopropyl)-1-imino-9-methyl-8,11,14,17-tetraoxo-2,7,10,13,16-pentaazaicosan-20-oic acid] (H-[His(Trt)]FYDQQARF-NH2) | 15.5 ± 2.2 -fold induction over basal
CCCCCCCC(=O)NCCCC[C@H](NC(=O)[C@H](CO)NC(=O)CNC(=O)[C@@H](N)Cc1cn(C(c2ccccc2)(c2ccccc2)c2ccccc2)cn1)C(=O)N[C@@H](Cc1ccccc1)C(=O)N[C@@H](Cc1ccc(O)cc1)C(=O)O [HKFY-53, N6-octanoyl-N2-(Nt-trityl-L-histidylglycyl-L-seryl)-L-lysyl-L-phenylalanyl-L-tyrosine] (H-[His(Trt)]GSK(Octanoyl)FY-OH) | 8 ± 2.12 -fold induction over basal
CCCCCCCC(=O)NCCCC[C@H](N)C(=O)N[C@@H](Cc1ccccc1)C(=O)N[C@@H](Cc1ccc(O)cc1)C(=O)O [HKFY-54, N6-octanoyl-L-lysyl-L-phenylalanyl-L-tyrosine] (H-Lys(Octanoyl)-Phe-Tyr-OH) | 7.8 ± 2.5 -fold induction over basal
CCCCCCCC(=O)NCCCC[C@H](N)C(=O)N[C@@H](Cc1cn(C(c2ccccc2)(c2ccccc2)c2ccccc2)cn1)C(=O)N[C@@H](Cc1ccccc1)C(=O)N[C@@H](Cc1ccc(O)cc1)C(=O)O [HKFY-55, Na-(N6-octanoyl-L-lysyl)-Nt-trityl-L-histidyl-L-phenylalanyl-L-tyrosine] (H-K(Octanoyl)[His(Trt)]FY-OH) | 16.8 ± 2.5 -fold induction over basal
CCCCCCCC(=O)NCCCC[C@H](NC(=O)[C@@H](N)Cc1cn(-c2ccccc2)c(-c2ccccc2)n1)C(=O)N[C@H](Cc1ccc(C)cc1)C(=O)N[C@@H](Cc1ccc(O)cc1)C(=O)O [HKFY-59, ((R)-2-((S)-2-((S)-2-amino-3-(1,2-diphenyl-1H-imidazol-4-yl)propanamido)-6-octanamidohexanamido)-3-(p-tolyl)propanoyl)-L-tyrosine] | 6.76 ± 2.2 -fold induction over basal
CCCCCCCC(=O)NCCCC[C@H](NC(=O)[C@@H](N)Cc1c[nH]c(-c2ccc(C(C)(C)C)cc2)n1)C(=O)N[C@H](Cc1ccc(C)cc1)C(=O)N[C@@H](Cc1ccc(O)cc1)C(=O)O [HKFY-60, ((R)-2-((S)-2-((S)-2-amino-3-(2-(4-(tert-butyl)phenyl)-1H-imidazol-4-yl)propanamido)-6-octanamidohexanamido)-3-(p-tolyl)propanoyl)-L-tyrosine] | 28.2 ± 2.5 -fold induction over basal
CCCCCCCC(=O)NCCCC[C@H](NC(=O)[C@H](N)Cc1cn(C(c2ccccc2)c2ccccc2)cn1)C(=O)N[C@H](Cc1ccc(C)cc1)C(=O)N[C@@H](Cc1ccc(O)cc1)C(=O)O [HKFY-62, ((R)-2-((S)-2-((R)-2-amino-3-(1-benzhydryl-1H-imidazol-4-yl)propanamido)-6-octanamidohexanamido)-3-(p-tolyl)propanoyl)-L-tyrosine] | 28.1 ± 2.1 -fold induction over basal
CCCCCCCC(=O)NCCCC[C@H](NC(=O)[C@@H](N)Cc1cn(C(c2ccccc2)c2ccccc2)cn1)C(=O)N[C@H](Cc1ccc(C)cc1)C(=O)N[C@@H](Cc1ccc(O)c(Cl)c1)C(=O)O [HKFY-67, (S)-2-((R)-2-((S)-2-((S)-2-amino-3-(1-benzhydryl-1H-imidazol-4-yl)propanamido)-6-octanamidohexanamido)-3-(p-tolyl)propanamido)-3-(3-chloro-4-hydroxyphenyl)propanoic acid] (H-[His(τ-CHPh2)]K(Octanoyl)[dPhe(4-Me)][Tyr(3-Cl)]-OH) | 10.2 ± 1.51 -fold induction over basal
CCCCCCCC(=O)NCCCC[C@H](NC(=O)[C@@H](N)Cc1cn(C(c2ccccc2)c2ccccc2)cn1)C(=O)N[C@H](Cc1ccc(C)cc1)C(=O)N[C@@H](Cc1ccc(O)c([N+](=O)[O-])c1)C(=O)O [HKFY-68, (S)-2-((R)-2-((S)-2-((S)-2-amino-3-(1-benzhydryl-1H-imidazol-4-yl)propanamido)-6-octanamidohexanamido)-3-(p-tolyl)propanamido)-3-(4-hydroxy-3-nitrophenyl)propanoic acid] (H-[His(τ-CHPh2)]K(Octanoyl)[dPhe(4-Me)][Tyr(3-NO2)]-OH) | 10.8 ± 1.41 -fold induction over basal
CCCCCCCC(=O)NCCCC[C@H](NC(=O)[C@@H](N)Cc1cn(S(=O)(=O)c2ccc(C)cc2)cn1)C(=O)N[C@H](Cc1ccc(C)cc1)C(=O)N[C@@H](Cc1ccc(O)cc1)C(=O)O [HKFY-75, ((R)-2-((S)-2-((S)-2-amino-3-(1-tosyl-1H-imidazol-4-yl)propanamido)-6-octanamidohexanamido)-3-(p-tolyl)propanoyl)-L-tyrosine] | 15.9 ± 4.12 -fold induction over basal
CCCCCCCC(=O)NCCCC[C@H](NC(=O)[C@@H](N)Cc1cn(C(c2ccccc2)c2ccccc2)cn1)C(=O)O [HKFY-79, N2-(Nt-benzhydryl-L-histidyl)-N6-octanoyl-L-lysine] | 11.2 ± 1.4 -fold induction over basal
